Reference: ChEMBL document CHEMBL1137485, “Design, synthesis, and biological testing of pyrazoline derivatives of combretastatin-A4” (Bioorg Med Chem Lett, 2007)

Tests used:
B16 = experiment: Cytotoxicity against mouse B16 cells after 72 hrs by MTT assay; type: functional, cell-based; conditions: B16, 72 h
A10 [1] = experiment: Reduction of microtubules in […] A10 cells; type: functional, cell-based; conditions: Rattus norvegicus
L1210 = experiment: Cytotoxicity against mouse L1210 cells after 72 hrs by MTT assay; type: functional, cell-based; conditions: L1210, 72 h
A10 [2] = experiment: Reduction of microtubules in human A10 cells at 40 uM; type: functional; design: scale not given: the % may be the effect or the level left

| EC50 (A10 [1]) [µM] | SMILES | IC50 (B16) [µM] | IC50 (L1210) [µM] | Activity (A10 [2]) [%] |
| --- | --- | --- | --- | --- |
| 7.1 | COc1ccc(C2CC(c3cc(OC)c(OC)c(OC)c3)=NN2)cc1O (stereo not drawn) | 2.1 | 0.5 | – |
| – | COc1ccc(C2CC(c3cc(OC)c(OC)c(OC)c3)=NN2)cc1OC (stereo not drawn) | 44 | 42 | – |
| – | COc1cc(C2=NNC(c3cc(OC)c(OC)c(OC)c3)C2)cc(OC)c1OC (stereo not drawn) | 56 | 24 | – |
| – | COc1ccccc1C1CC(c2cc(OC)c(OC)c(OC)c2)=NN1C(C)=O (stereo not drawn) | > 100 | 43 | – |
| – | COc1ccc(C2CC(c3cc(OC)c(OC)c(OC)c3)=NN2C(C)=O)cc1[N+](=O)[O-] (stereo not drawn) | > 100 | 52 | – |
| – | COc1cc(C2=NN(C(C)=O)C(c3ccc(Cl)cc3)C2)cc(OC)c1OC (stereo not drawn) | 35 | 30 | – |
| – | COc1ccc(C2CC(c3cc(OC)c(OC)c(OC)c3)=NN2C(C)=O)cc1O (stereo not drawn) | > 100 | > 100 | 10 |
| – | COc1cccc(C2CC(c3cc(OC)c(OC)c(OC)c3)=NN2C(C)=O)c1 (stereo not drawn) | > 100 | 44 | – |
| – | COc1ccc(OC)c(C2CC(c3cc(OC)c(OC)c(OC)c3)=NN2C(C)=O)c1 (stereo not drawn) | > 100 | > 100 | – |
| – | COc1cc(C2=NN(C(C)=O)C(c3ccc([N+](=O)[O-])cc3)C2)cc(OC)c1OC (stereo not drawn) | 51 | 42 | – |
| – | COc1cc(OC)c(C2CC(c3cc(OC)ccc3OC)=NN2C(C)=O)c(OC)c1 (stereo not drawn) | 69 | 33 | – |
| – | COc1ccc(OC)c(C2=NN(C(C)=O)C(c3ccc(OC)c([N+](=O)[O-])c3)C2)c1 (stereo not drawn) | 58 | 40 | – |
| – | COc1ccc(OC)c(C2=NN(C(C)=O)C(c3ccc(OC)c(OC)c3)C2)c1 (stereo not drawn) | 62 | 28 | – |
